Source: ChEMBL document CHEMBL1201862, “PubChem BioAssay data set” (2004)
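All cell lines were grown in 96-well plates and treated with compound for 48 hours. GI50 is the concentration that inhibits growth by half.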 Calls of active or inactive are those of the source. No stated cut-off is given here; in the data, active = GI50 up to about 1.1 µM and inactive = higher.

Experiments:
Assay in all cases: NCI tumour cell line growth inhibition, 48 h
[1] = tested on: LXFL 529
[2] = tested on: DMS-114
[3] = tested on: SNB-78
[4] = tested on: M19-MEL
[5] = tested on: DLD-1
[6] = tested on: DMS-273
[7] = tested on: HOP-18
[8] = tested on: KM-20L2
[9] = tested on: RXF 631

Row | Compound | GI50 [1] | GI50 [2] | GI50 [3] | GI50 [4] | GI50 [5] | GI50 [6] | GI50 [7] | GI50 [8] | GI50 [9]
1 | COC(=O)C[S+]([O-])c1ccccc1 (stereo unspecified) | 31.8 µM (inactive) | 20.8 µM (inactive) | 33.5 µM (inactive) | 30.5 µM (inactive) | 29.1 µM (inactive) | 28.9 µM (inactive) | – | – | –
2 | O=C1C[C@H](c2ccc(O)c(O)c2)Oc2cc(O)cc(O)c21 | > 100 µM (inactive) | 21.2 µM (inactive) | > 100 µM (inactive) | > 100 µM (inactive) | > 100 µM (inactive) | > 100 µM (inactive) | > 100 µM (inactive) | > 100 µM (inactive) | 64.4 µM (inactive)
3 | COC(=O)N/N=C/c1oc(-c2ccccc2)c(-c2ccccc2)c1[N+](=O)[O-] | > 100 µM (inactive) | > 100 µM (inactive) | > 100 µM (inactive) | > 100 µM (inactive) | > 100 µM (inactive) | > 100 µM (inactive) | – | > 100 µM (inactive) | > 100 µM (inactive)
4 | COc1ccc(CC#C/C=C/C(=O)NCC(C)C)cc1 | > 100 µM (inactive) | > 100 µM (inactive) | > 100 µM (inactive) | > 100 µM (inactive) | > 100 µM (inactive) | > 100 µM (inactive) | > 100 µM (inactive) | > 100 µM (inactive) | –
5 | CCCC(C)NC1=C(NC(C)=O)C(=O)c2ccccc2C1=O (stereo unspecified) | > 100 µM (inactive) | – | > 100 µM (inactive) | 62.7 µM (inactive) | > 100 µM (inactive) | > 100 µM (inactive) | – | > 100 µM (inactive) | –
6 | CC(=O)Oc1ccc(O)c2c1CCCC2 | 16.3 µM (inactive) | 30.2 µM (inactive) | 19.8 µM (inactive) | 13.4 µM (inactive) | 20.7 µM (inactive) | > 46.1 µM (inactive) | 21.6 µM (inactive) | > 100 µM (inactive) | > 100 µM (inactive)
7 | CC(=O)NCc1c(C(N)=O)ncn1Cc1ccccc1 | > 100 µM (inactive) | > 100 µM (inactive) | > 100 µM (inactive) | > 100 µM (inactive) | – | > 100 µM (inactive) | > 100 µM (inactive) | > 100 µM (inactive) | > 100 µM (inactive)
8 | O=C1c2ccccc2C(=O)N1C/C=N/NS(=O)(=O)c1ccc2ccccc2c1 | > 100 µM (inactive) | – | > 100 µM (inactive) | > 100 µM (inactive) | > 100 µM (inactive) | > 100 µM (inactive) | > 100 µM (inactive) | > 100 µM (inactive) | > 100 µM (inactive)
9 | C=C1C(=O)C=C2C=C3C(=O)C(C)(C)C[C@]3(O)C12C (stereo partly specified) | 1.26 µM (inactive) | 1.1 µM (active) | 7.74 µM (inactive) | 5.68 µM (inactive) | 1.65 µM (inactive) | 5.92 µM (inactive) | – | – | 16.4 µM (inactive)
10 | O=c1c2ccccc2oc2nccnc12 | > 100 µM (inactive) | > 100 µM (inactive) | > 100 µM (inactive) | > 100 µM (inactive) | > 100 µM (inactive) | > 100 µM (inactive) | > 100 µM (inactive) | > 100 µM (inactive) | > 100 µM (inactive)
11 | COc1ccc(C(c2c(O)c3ccccc3n(-c3ccccc3)c2=O)c2c(O)c3ccccc3n(-c3ccccc3)c2=O)cc1 | > 100 µM (inactive) | > 100 µM (inactive) | > 100 µM (inactive) | > 100 µM (inactive) | > 100 µM (inactive) | > 100 µM (inactive) | > 100 µM (inactive) | > 100 µM (inactive) | –
12 | CC(=O)OC1COC(N2C(=O)C(=O)c3ccccc32)C(OC(C)=O)C1OC(C)=O (stereo unspecified) | > 100 µM (inactive) | > 100 µM (inactive) | > 100 µM (inactive) | 34.8 µM (inactive) | > 100 µM (inactive) | > 100 µM (inactive) | – | > 100 µM (inactive) | > 100 µM (inactive)
13 | Cc1ccc(NC(=O)C(=O)C(C#N)c2ccccc2C)cc1C (stereo unspecified) | > 100 µM (inactive) | > 41.7 µM (inactive) | > 100 µM (inactive) | – | 52.4 µM (inactive) | > 71.6 µM (inactive) | > 100 µM (inactive) | > 79.8 µM (inactive) | –
